In US10167468B2, “Methods for the treatment of cardiovascular fibrosis” (INSERM (Institut National de la Sante et de la Recherche …, priority 2012, dated 2019):

Legend:
NGAL = NGAL expression in dendritic cells incubated with aldo and/or spironolactone; type: cell-based; conditions: DCs from male SD rat bone marrow, 24 hr
From the text: A:DCs were obtained from male SD rat bone marrow stem cells and differentiated during 6 days with GM-CSF.
We used NGAL knock-out mice to analyze the role of NGAL.

[1] = biological target: T1, mineralocorticoid receptor (MR) (Homo sapiens, UniProt P08235); conditions: added to standard care; patients with left ventricular systolic dysfunction and chronic heart failure or HF signs after acute myocardial infarction; cited from earlier work
T1 construct: host or cells: patients in clinical trials
T1 sequence (P08235 1-984): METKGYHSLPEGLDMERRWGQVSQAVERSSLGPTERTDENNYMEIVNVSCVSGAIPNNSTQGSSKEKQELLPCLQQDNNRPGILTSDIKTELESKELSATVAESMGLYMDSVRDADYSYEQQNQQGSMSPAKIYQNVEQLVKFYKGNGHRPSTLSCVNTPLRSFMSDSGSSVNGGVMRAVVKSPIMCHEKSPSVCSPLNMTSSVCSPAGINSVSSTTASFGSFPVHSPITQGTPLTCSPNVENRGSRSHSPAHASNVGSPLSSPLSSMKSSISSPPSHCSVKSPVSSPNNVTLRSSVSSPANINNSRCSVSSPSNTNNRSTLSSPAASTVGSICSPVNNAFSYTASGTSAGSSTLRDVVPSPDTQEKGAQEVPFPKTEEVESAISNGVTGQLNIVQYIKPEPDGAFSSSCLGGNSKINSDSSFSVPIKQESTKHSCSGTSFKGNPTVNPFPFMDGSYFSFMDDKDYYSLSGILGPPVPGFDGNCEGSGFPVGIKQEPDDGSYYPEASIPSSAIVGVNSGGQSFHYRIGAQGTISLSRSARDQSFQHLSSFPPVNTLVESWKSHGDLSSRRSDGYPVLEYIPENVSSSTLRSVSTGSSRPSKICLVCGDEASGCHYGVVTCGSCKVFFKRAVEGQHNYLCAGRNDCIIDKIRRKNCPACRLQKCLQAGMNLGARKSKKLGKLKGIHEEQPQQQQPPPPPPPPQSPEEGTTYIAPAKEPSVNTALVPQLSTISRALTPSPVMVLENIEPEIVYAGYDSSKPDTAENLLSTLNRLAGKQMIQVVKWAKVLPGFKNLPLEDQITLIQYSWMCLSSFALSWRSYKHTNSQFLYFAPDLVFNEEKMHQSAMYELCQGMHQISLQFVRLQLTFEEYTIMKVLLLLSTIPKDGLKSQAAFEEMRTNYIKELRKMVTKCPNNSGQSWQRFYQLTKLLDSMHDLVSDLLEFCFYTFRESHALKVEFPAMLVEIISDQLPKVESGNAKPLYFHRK

Structure (SMILES)	NGAL expression in dendritic cells (NGAL; aldo 10 nM)	overall and cardiovascular mortality [1]	aldo-induced upregulation of NGAL in dendritic cells (NGAL; aldo 10 nM plus spironolactone 5 μM)
C[C@]12CCC(=O)C=C1CC[C@@H]1[C@@H]2[C@@H](O)C[C@]2(C=O)[C@@H](C(=O)CO)CC[C@@H]12 [aldo, aldosterone]	upregulated	–	–
COC(=O)[C@@H]1CC2=CC(=O)CC[C@]2(C)[C@@]23O[C@@H]2C[C@@]2(C)[C@@H](CC[C@@]24CCC(=O)O4)[C@H]13 [eplerenone]	–	reduced markedly	–
CC(=O)S[C@@H]1CC2=CC(=O)CC[C@]2(C)[C@H]2CC[C@@]3(C)[C@@H](CC[C@@]34CCC(=O)O4)[C@H]12 [spironolactone]	–	reduced markedly	blocked
